Data published in PMC7561186, “Rational design of balanced dual-targeting antibiotics with limited resistance” (PLoS Biology, 2020).
Values after ≈ are worked out from the molar mass of the structure shown. Read-outs that look alike come from different tables or passages of the source.

What was measured:
[1] = system: S. aureus clinical isolates; experiment: microbe, parasite or virus in culture; type: cell-based; details: Staphylococcus aureus, read-out: MIC
[2] = system: human hERG potassium ion channel
Description: Inhibition of the human hERG cardiac K+ ion channel was determined by Eurofins Panlabs (St. Charles, MO, USA) by using QPatch automated whole-cell patch-clamp electrophysiology, as described previously. […] During measurements, after whole-cell patch configuration was achieved, the cells were held at −80 mV. Next, a 500-millisecond pulse to −40 mV was delivered to measure the leaking current, which was then subtracted from the tail current’s readout. Then the cell was depolarized to +40 mV for 500 milliseconds and then to −80 mV over a 100-millisecond ramp to elicit the hERG tail current. This workflow was repeated once in every 8 seconds to monitor the current amplitude. The parameters measured during each test were the maximum tail current evoked on stepping to 40 mV and ramping back to −80 mV from the test pulse. All data were filtered for seal quality, seal drop, and current amplitude. The peak current amplitude was calculated before and after compound addition, and the amount of inhibition was assessed by dividing the test compound’s current amplitude by the control’s current amplitude. During our tests, the control was the mean hERG current amplitude collected 15 seconds at the end of each measurement, and the test compound was the mean hERG current amplitude collected in the presence of test compound at the given concentration.

[3] = system: S. aureus VISA ATCC 700699 GyrB R144I and GyrB I175T; experiment: Second-step frequency-of-resistance assay in GyrB single mutants; type: cell-based
Description: To determine the spontaneous frequency-of-resistance, approximately 10^10 cells from stationary-phase MHBII broth cultures of S. aureus ATCC 700699 and S. aureus ATCC 43300 were plated to antibiotic-containing plates according to a standard protocol to determine frequency-of-resistance. Prior to plating, bacteria were grown overnight in MHBII medium at 37 °C, 250 rpm, collected by centrifugation, and washed once in equal volumes of MHBII broth. From this concentrated cell suspension (250 μL), approximately 10^10 cells were then plated to each MHBII agarose plates. Using agarose instead of agar reduced drug-adsorption and improved the performance of the assay. […] All experiments were performed in at least 3 replicates. Plates were grown at 37 °C for 72 hours. Total CFUs were determined simultaneously in each experiment by plating appropriate dilutions to antibiotic-free MHBII agar plates. Finally, resistance frequencies for each strain were calculated by dividing the number of colonies formed after a 72-hour incubation at 37 °C by the initial viable cell count.

[4] = system: MCF-7 cells; details: LDH assay
Description: (§1) Cytotoxicity of compounds on HepG2 and MCF-7 mammalian cell lines was determined by using a standard LDH assay. Briefly, HepG2 and MCF-7 cells were cultured in Eagle’s MEM medium (from Gibco) supplemented with 2 mM L-glutamine (Sigma), 100 U/mL penicillin (Sigma), and 100 μg/mL streptomycin (Sigma), and 10% FBS (Gibco) at 37 °C and under 5% CO2. Next, LDH assays were performed according to manufacturer instructions (Thermo Fisher Scientific, Massachusetts, USA). By using a CyQUANT LDH Cytotoxicity Assay Kit. Firstly, the cells were seeded in 96-well microtiter plates at 10^5 cells/mL (100 μL/well) and allowed to attach overnight. […] Lysis buffer (10 μL, Thermo Fisher Scientific) was then added to the maximal LDH activity control wells and incubated additional 45 minutes. The cell culture supernatant (50 μL) was then transferred to a new 96-well plate and mixed with 50 μL of the reaction mixture. After 30 minutes on room temperature, reactions were stopped with 50 μL of the Stop solution. Absorbance (490 nm and 680 nm) was measured with the automatic microplate reader Synergy 4 Hybrid Microplate Reader (BioTek, VT, USA). All experiments were performed in triplicates and repeated 3 times. Statistical significance (P < 0.05) was calculated with 2-tailed Welch’s t-test between treated groups and DMSO. The percentage of cytotoxicity was determined according to the following equation: %Cytotoxicity=(CompoundtreatedLDHactivity-SpontaneousLDHactivity/MaximumLDHactivity-SpontaneousLDHactivity)*100

[5] = in vitro; details: human
Description: as §1

In the case of `Cc1[nH]c(C(=O)Nc2nc3ccc(C(=O)O)cc3s2)c(Cl)c1Cl` [ULD1], the MIC ([1]; MRSA, S. aureus IHMA 1703428, MRSA / VSSA) is reported as 1 µg/mL (≈ 2.7 µM), the MIC ([1]; MRSA, S. aureus IHMA 1720350, MRSA / VSSA) is reported as 1 µg/mL (≈ 2.7 µM) and the MIC ([1]; MRSA, S. aureus IHMA 1732989, MRSA / VSSA) is reported as 1 µg/mL (≈ 2.7 µM). It also gave an MIC ([1]; MRSA, S. aureus IHMA 1742231, MRSA / VSSA) of 0.5 µg/mL (≈ 1.35 µM), an MIC ([1]; MRSA, S. aureus IHMA 1766357, MRSA / VSSA) of 0.25 µg/mL (≈ 0.675 µM) and an MIC ([1]; MSSA / NRS 12 / VISA, S. aureus IHMA 1308244, NRS12, MSSA / VISA) of 1 µg/mL (≈ 2.7 µM). It also gave an MIC ([1]; MSSA / NRS 13 / VISA, S. aureus IHMA 1308245, NRS13, MSSA / VISA) of 1 µg/mL (≈ 2.7 µM), an MIC ([1]; MSSA / NRS 14 / VISA, S. aureus IHMA 1308246, NRS14, MSSA / VISA) of 1 µg/mL (≈ 2.7 µM) and an MIC ([1]; MSSA / NRS 17 / VISA, S. aureus IHMA 1308247, NRS17, MSSA / VISA) of 1 µg/mL (≈ 2.7 µM). It also gave an MIC ([1]; MSSA / NRS 28 / VISA, S. aureus IHMA 1308249, NRS28, MSSA / VISA) of 1 µg/mL (≈ 2.7 µM), an MIC ([1]; MSSA / NRS 52, S. aureus IHMA 1308252, NRS52, MSSA / VSSA* (*Expected VAN intermediate, confirmed VAN susceptible twice), test date 2018-11-07) of 0.12 µg/mL (≈ 0.324 µM) and an MIC ([1]; MSSA / USA100 / VRSA, S. aureus IHMA 672236, VRS6, MSSA / VRSA, USA100) of 0.25 µg/mL (≈ 0.675 µM). For the same molecule, the MIC ([1]; MSSA, S. aureus IHMA 1563826, MSSA / VSSA) was 0.5 µg/mL (≈ 1.35 µM), the MIC ([1]; MSSA, S. aureus IHMA 1565492, MSSA / VSSA) was 0.25 µg/mL (≈ 0.675 µM) and the MIC ([1]; MSSA, S. aureus IHMA 1569499, MSSA / VSSA) was 1 µg/mL (≈ 2.7 µM). For the same molecule, the MIC ([1]; MSSA, S. aureus IHMA 1569754, MSSA / VSSA) was 0.25 µg/mL (≈ 0.675 µM), the MIC ([1]; MSSA, S. aureus IHMA 1574202, MSSA / VSSA) was 0.5 µg/mL (≈ 1.35 µM) and the MIC ([1]; MSSA, S. aureus IHMA 1575652, MSSA / VSSA) was 0.5 µg/mL (≈ 1.35 µM). For the same molecule, the MIC ([1]; MSSA, S. aureus IHMA 1575779, MSSA / VSSA) was 1 µg/mL (≈ 2.7 µM), the MIC ([1]; MSSA, S. aureus IHMA 1576329, MSSA / VSSA) was 1 µg/mL (≈ 2.7 µM) and the MIC ([1]; MSSA, S. aureus IHMA 1577800, MSSA / VSSA) was 0.5 µg/mL (≈ 1.35 µM). The MIC ([1]; MSSA, S. aureus IHMA 1578560, MSSA / VSSA) was 1 µg/mL (≈ 2.7 µM), the MIC ([1]; MSSA, S. aureus IHMA 1580233, MSSA / VSSA) was 0.25 µg/mL (≈ 0.675 µM) and the MIC ([1]; MSSA, S. aureus IHMA 1580925, MSSA / VSSA) was 0.25 µg/mL (≈ 0.675 µM). It also gave an MIC ([1]; MSSA, S. aureus IHMA 1580955, MSSA / VSSA) of 1 µg/mL (≈ 2.7 µM), an MIC ([1]; MSSA, S. aureus IHMA 1582586, MSSA / VSSA) of 1 µg/mL (≈ 2.7 µM) and an MIC ([1]; MSSA, S. aureus IHMA 1582691, MSSA / VSSA) of 0.25 µg/mL (≈ 0.675 µM). For the same molecule, the MIC ([1]; MSSA, S. aureus IHMA 1584230, MSSA / VSSA) was 1 µg/mL (≈ 2.7 µM), the MIC ([1]; MSSA, S. aureus IHMA 1587279, MSSA / VSSA) was 0.5 µg/mL (≈ 1.35 µM) and the MIC ([1]; MSSA, S. aureus IHMA 1591459, MSSA / VSSA) was 0.5 µg/mL (≈ 1.35 µM). The MIC ([1]; MSSA, S. aureus IHMA 1592749, MSSA / VSSA) was 1 µg/mL (≈ 2.7 µM), the MIC ([1]; MSSA, S. aureus IHMA 1592751, MSSA / VSSA) was 0.5 µg/mL (≈ 1.35 µM) and the MIC ([1]; MSSA, S. aureus IHMA 1594297, MSSA / VSSA) was 1 µg/mL (≈ 2.7 µM). The MIC ([1]; MSSA, S. aureus IHMA 1597120, MSSA / VSSA) was 1 µg/mL (≈ 2.7 µM), the MIC ([1]; MSSA, S. aureus IHMA 1597125, MSSA / VSSA) was 1 µg/mL (≈ 2.7 µM) and the MIC ([1]; MSSA, S. aureus IHMA 1599157, MSSA / VSSA) was 1 µg/mL (≈ 2.7 µM). It also gave an MIC ([1]; MSSA, S. aureus IHMA 1599506, MSSA / VSSA) of 0.12 µg/mL (≈ 0.324 µM), an MIC ([1]; MSSA, S. aureus IHMA 1602078, MSSA / VSSA) of 0.5 µg/mL (≈ 1.35 µM) and an MIC ([1]; MSSA, S. aureus IHMA 1604586, MSSA / VSSA) of 0.5 µg/mL (≈ 1.35 µM). For the same molecule, the MIC ([1]; MSSA, S. aureus IHMA 1604609, MSSA / VSSA) was 0.5 µg/mL (≈ 1.35 µM), the MIC ([1]; MSSA, S. aureus IHMA 1609919, MSSA / VSSA) was 0.5 µg/mL (≈ 1.35 µM) and the MIC ([1]; MSSA, S. aureus IHMA 1622864, MSSA / VSSA) was 0.5 µg/mL (≈ 1.35 µM). For the same molecule, the MIC ([1]; MSSA, S. aureus IHMA 1626392, MSSA / VSSA) was 1 µg/mL (≈ 2.7 µM), the MIC ([1]; MSSA, S. aureus IHMA 1713793, MSSA / VSSA) was 1 µg/mL (≈ 2.7 µM) and the “inhibitory effect on human hERG ion channels” value ([2]; 150 μM, in words) was “No statistically significant inhibitory effect”. For the same molecule, the “Significant (hERG inhibition)” value ([2]; hERG, 150 µM) was “No (Only results showing an inhibition higher than 50% are considered to represent significant effects of the tested compounds)”, the “Normalized inhibition (%)” value ([2]; hERG, 150 µM, n = 8) was 5.5% and the Resistant colony number ([3]; VISA GyrB I175T, 4xMIC) was “lawn”. The Resistant colony number ([3]; VISA GyrB I175T, 8xMIC) was “lawn”, the Resistant colony number ([3]; VISA GyrB R144I, 4xMIC) was “lawn” and the Frequency-of-Resistance ([3]; VISA GyrB R144I, 12xMIC) was 4.57E-08. It also gave a Resistant colony number ([3]; VISA GyrB R144I, 12xMIC) of 1288, a Frequency-of-Resistance ([3]; VISA GyrB R144I, 16xMIC) of 1.61E-08 and a Resistant colony number ([3]; VISA GyrB R144I, 16xMIC) of 454. The “Max. % inhibition at 100 µM” value [4] was “Max. % inhibition at 100 µM: 0%” and the IC50 [5] was greater than 100 µM.
